From US7256185B1, “Control of selective estrogen receptor modulators” (Eastern Virginia Medical School, priority 1997, dated 2007)
Like-named read-outs stand apart in the source and are kept apart here.

Protocol: 1. Clomiphene is used alone at 100 mg/day for the treatment of endometriosis. […] Levonorgestrel at 75 mcg/day is then also administered.
2. Raloxifene at 500 mg/day and medroxprogesterone acetate at 12 mg/day were administrated to treat leiomyoma.
5. Clomiphene is used alone at 100 mg/day for the treatment of endometriosis. […] Danazol at 100 to 800 mg/day is then also administered.

[1] = clomiphene ZU isomer 50 mg/day and norgestimate 100 mcg/day coadministered
[2] = raloxifene 500 mg/day and medroxprogesterone acetate 12 mg/day administered together, leiomyoma

Row | Compound | serum estrogen [1] | serum estrogen [2] | other results
1 | C#C[C@]1(OC(C)=O)CC[C@H]2[C@@H]3CCC4=CC(=NO)CC[C@@H]4[C@H]3CC[C@@]21CC (mixture of isomers) [norgestimate] | remained at physiological levels | – | –
2 | CCN(CC)CCOc1ccc(/C(=C(\Cl)c2ccccc2)c2ccccc2)cc1 (single isomer, unassigned) [Clomiphene ZU isomer] | remained at physiological levels | – | –
3 | C#C[C@]1(O)CC[C@H]2[C@@H]3CCC4=Cc5oncc5C[C@]4(C)[C@H]3CC[C@@]21C [Danazol, danazol] | – | – | serum estrogen (danazol 100 to 800 mg/day added to clomiphene 100 mg/day after serum estrogen reached 500 pg/ml, endometriosis): retreated to physiological value
4 | O=C(c1ccc(OCCN2CCCCC2)cc1)c1c(-c2ccc(O)cc2)sc2cc(O)ccc12 [Raloxifene] | – | remained at physiological levels | –
5 | CC(=O)O[C@]1(C(C)=O)CC[C@H]2[C@@H]3C[C@H](C)C4=CC(=O)CC[C@]4(C)[C@H]3CC[C@@]21C [medroxprogesterone acetate] | – | remained at physiological levels | –
